{
  "source": "paper PMC7059139",
  "about": "“Inhibiting MARSs reduces hyperhomocysteinemia‐associated neural tube and congenital heart defects” (EMBO Molecular Medicine, 2020)",
  "key": {"MARS2": {"molecular_target": "T1, MARS2 (Mus musculus, UniProt Q499X9)", "T1 construct": "Flag-tagged, cDNA NM_175439.3", "T1 sequence (Q499X9 47-586)": "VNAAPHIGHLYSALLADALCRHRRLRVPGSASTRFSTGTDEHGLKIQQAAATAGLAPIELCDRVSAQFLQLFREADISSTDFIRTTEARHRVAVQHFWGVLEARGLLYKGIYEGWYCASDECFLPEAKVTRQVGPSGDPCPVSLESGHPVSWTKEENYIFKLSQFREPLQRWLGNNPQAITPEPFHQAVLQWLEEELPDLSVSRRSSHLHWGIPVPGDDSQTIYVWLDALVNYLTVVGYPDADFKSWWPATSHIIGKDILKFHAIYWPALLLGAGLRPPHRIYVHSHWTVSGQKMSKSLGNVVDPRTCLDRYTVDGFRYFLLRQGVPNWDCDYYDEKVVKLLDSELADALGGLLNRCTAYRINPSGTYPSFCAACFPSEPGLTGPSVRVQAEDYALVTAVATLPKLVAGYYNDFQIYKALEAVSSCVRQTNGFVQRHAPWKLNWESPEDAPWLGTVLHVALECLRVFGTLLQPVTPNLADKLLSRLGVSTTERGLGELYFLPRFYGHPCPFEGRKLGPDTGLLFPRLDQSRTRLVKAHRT", "assay": "in vitro HTL production from Hcy ([…]), thin layer chromatography", "type": "biochemical"}, "[1]": {"molecular_target": "T2, MARS (methionyl-tRNA synthetase) (Homo sapiens, UniProt P56192)", "T2 construct": "gene MARS1; Flag-tagged, cDNA NM_004990.3", "T2 sequence (P56192 1-900)": "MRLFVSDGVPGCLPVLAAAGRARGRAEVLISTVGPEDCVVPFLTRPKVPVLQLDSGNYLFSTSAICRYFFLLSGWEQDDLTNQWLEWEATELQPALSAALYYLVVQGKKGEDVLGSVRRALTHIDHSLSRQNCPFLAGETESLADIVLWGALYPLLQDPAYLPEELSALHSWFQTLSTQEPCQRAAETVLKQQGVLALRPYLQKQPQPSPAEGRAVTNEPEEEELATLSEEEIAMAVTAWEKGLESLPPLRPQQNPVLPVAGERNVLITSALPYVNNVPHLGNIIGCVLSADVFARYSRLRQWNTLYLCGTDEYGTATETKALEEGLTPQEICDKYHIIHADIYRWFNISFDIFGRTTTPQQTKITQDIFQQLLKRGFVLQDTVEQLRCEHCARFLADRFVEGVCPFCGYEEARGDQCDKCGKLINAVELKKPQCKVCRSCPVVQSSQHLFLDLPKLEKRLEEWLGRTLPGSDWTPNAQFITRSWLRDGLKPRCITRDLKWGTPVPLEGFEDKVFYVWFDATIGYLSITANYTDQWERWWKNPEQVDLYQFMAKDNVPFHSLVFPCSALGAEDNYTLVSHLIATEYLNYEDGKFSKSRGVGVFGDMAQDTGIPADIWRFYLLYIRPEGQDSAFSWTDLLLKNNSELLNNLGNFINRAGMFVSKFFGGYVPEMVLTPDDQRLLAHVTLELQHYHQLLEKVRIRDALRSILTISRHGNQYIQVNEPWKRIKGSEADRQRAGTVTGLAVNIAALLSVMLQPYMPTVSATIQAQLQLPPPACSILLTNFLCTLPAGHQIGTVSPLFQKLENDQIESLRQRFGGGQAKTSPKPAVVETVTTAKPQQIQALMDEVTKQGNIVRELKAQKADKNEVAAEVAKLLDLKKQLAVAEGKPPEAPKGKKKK", "assay": "in vitro HTL production from Hcy ([…]), thin layer chromatography", "type": "biochemical"}},
  "note": "pIC50: −log10 of the molar value.",
  "data": [
    {"smiles": "NC(=O)CSCCC(N)C(=O)O", "note": "(racemic) [compound 5, AHT]", "values": [
      {"measurement": "pIC50", "setting": "MARS2", "result": 4.40},
      {"measurement": "pIC50", "setting": "[1]", "result": 4.44}
    ]}
  ]
}
